In US12264159B2, “Functionalized heterocycles as antiviral agents” (Enanta Pharmaceuticals, Inc., priority 2018, dated 2025):

Assays:
[1] = system: HBV in 2.2.15 cells; test: 2.2.15 cells: viral product in cell lysates quantified via quantitative real time PCR; assay type: cell-based, hepatitis B virus (HBV); details: Hepatitis B virus, 120 h, day 5 post treatment, 50% reduction of viral product vs no drug controls, readout (qPCR, HBsAg or HBeAg) not specified for the column
Summary of the method: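 2.2.15 cells (35,000/well, DMEM/F12, 10% FBS, G418) were treated with 5-fold serial compound dilutions, 0.5% DMSO final. After 5 days, lysates were quantified by qPCR, or supernatant HBsAg/HBeAg by ELISA; EC50 is the concentration giving 50% reduction versus no-drug controls.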

[2] = Compound induced cellular toxicity in HepG2 cells, ATPlite 1Step; assay type: cell-based; details: human, three days exposure, 50% reduction of total ATP vs no drug controls
Procedure: At day 3, post seeding cells are treated with ATPlite 1Step according to the manufacturer's instructions.

## CC(C)(C)[C@@H]1Cn2nc(-c3cccc(F)c3)c(-c3cccc(F)c3)c2-c2cc(=O)c(C(=O)O)cn21 [Example 94, (R)-6-(tert-butyl)-1,2-bis(3-fluorophenyl)-10-oxo-5,6-dihydro-10H-pyrazolo[1,5-a]pyrido[2,1-c]pyrazine-9-carboxylic acid]
[1]
  EC50: < 0.1 µM
[2]
  CC50 at 3 days: > 25 µM
